The conditions of data set [1]: rcm bond, 1,1,2-trichloroethane.
The next data set has as its target T1, calpain II (m calpain) (Homo sapiens, UniProt P17655).
T1 sequence (P17655 1-700): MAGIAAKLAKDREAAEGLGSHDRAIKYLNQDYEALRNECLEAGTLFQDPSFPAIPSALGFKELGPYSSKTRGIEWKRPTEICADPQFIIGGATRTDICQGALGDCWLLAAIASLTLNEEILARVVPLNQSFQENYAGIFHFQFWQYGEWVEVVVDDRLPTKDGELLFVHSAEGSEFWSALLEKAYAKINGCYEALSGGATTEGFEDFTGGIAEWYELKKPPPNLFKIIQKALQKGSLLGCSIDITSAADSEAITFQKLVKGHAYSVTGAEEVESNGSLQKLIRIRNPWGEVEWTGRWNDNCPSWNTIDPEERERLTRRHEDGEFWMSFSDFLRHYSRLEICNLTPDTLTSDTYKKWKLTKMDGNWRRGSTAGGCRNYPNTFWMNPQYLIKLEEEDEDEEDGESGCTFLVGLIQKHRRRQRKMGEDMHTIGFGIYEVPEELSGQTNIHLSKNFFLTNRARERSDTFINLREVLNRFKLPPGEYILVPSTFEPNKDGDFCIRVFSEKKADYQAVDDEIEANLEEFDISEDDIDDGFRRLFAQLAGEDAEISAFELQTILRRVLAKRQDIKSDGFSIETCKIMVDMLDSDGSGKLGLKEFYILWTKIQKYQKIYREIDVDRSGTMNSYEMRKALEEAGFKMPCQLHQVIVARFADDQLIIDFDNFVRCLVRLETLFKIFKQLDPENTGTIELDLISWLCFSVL
T1 sequence (P04632 1-268 partner): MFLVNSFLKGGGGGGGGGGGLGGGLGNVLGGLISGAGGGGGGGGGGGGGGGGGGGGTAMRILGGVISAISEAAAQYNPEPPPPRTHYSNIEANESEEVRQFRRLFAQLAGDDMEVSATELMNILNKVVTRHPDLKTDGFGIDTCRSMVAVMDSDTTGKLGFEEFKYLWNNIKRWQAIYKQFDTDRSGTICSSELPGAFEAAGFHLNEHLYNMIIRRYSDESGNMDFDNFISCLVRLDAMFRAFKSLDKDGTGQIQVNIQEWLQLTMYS
Briefly: BODIPY-casein fluorescence-based enzyme assay, calpain II / m-calpain. The following applies: BODIPY-casein substrate, Table 3; read-out: IC50 against m-calpain. It is filed as biochemical.

The mark [2] stands for this setting: 19-membered ring, Grubbs II (3 x 0.10 equiv), microwave, 10.0 mM.

This passage reports ring closure, isolated yield and IC50 results from US8710178B2, “Macrocyclic cysteine protease inhibitors and compositions thereof” (Lincoln University, priority 2006, dated 2014).

Read-outs that look alike come from different tables or passages of the source.

Experimental for calpain II (m calpain): The inhibitors were assayed against several enzymes using a BODIPY-casein substrate in the fluorescence-based assay procedure of V. F. Thompson, S. Saldana, J. Cong and D. E. Goll, Anal. Biochem. 2000, 279, 170.
A number of the compounds were assayed against m-calpain using a BODIPY-casein substrate in the fluorescence-based assay procedure of V. F. Thompson, S. Saldana, J. Cong and D. E. Goll, Anal. Biochem. 2000, 279, 170.

Consider “(E/Z)-12S-tert-Butoxycarbonylamino-9S-isobutyl-8,11-dioxo-2-oxa-7,10-diazabicyclo[12.2.2]octadeca-1(17),4,14(18),15-tetraene-6S-carboxylic acid methyl ester”, for which, in data set [1] (16-membered ring, Grubbs II (3 x 0.10 equiv), microwave, 10.0 mM), the ring closure, isolated yield worked out at 48%.
Take `CC(C)[C@@H]1NC(=O)[C@@H](NS(=O)(=O)c2ccc(F)cc2)Cc2ccc(cc2)OCCCC[C@@H](C=O)NC1=O` [Compound 54, 4-Fluoro-N-((7S,10S,135)-7-formyl-10-isopropyl-9,12-dioxo-2-oxa-8,11-diaza-bicyclo[13.2.2]nonadeca-1(18),15(19),16-trien-13-yl)-benzenesulfonamide]: the half-inhibitory concentration (IC50) (in general, the midpoint of a concentration-inhibition curve) at calpain II (m calpain) came out at 280 nM.
Turning to `CC(C)C[C@@H]1NC(=O)[C@@H](NS(=O)(=O)c2ccc(F)cc2)Cc2ccc(cc2)OCCCC[C@@H](C=O)NC1=O` [Compound 17, 4-Fluoro-N-((7S,10S,13S)-7-formyl-10-isobutyl-9,12-dioxo-2-oxa-8,1′-diaza-bicyclo[13.2.2]-nonadeca-1(18),15(19),16-trien-13-yl)-benzenesulfonamide], the half-maximal inhibitory concentration (IC50) on calpain II (m calpain) was 45 nM.
Still for that read-out and setting: the same measure for `CC(C)[C@@H]1NC(=O)[C@@H](NC(=O)OCc2ccccc2)Cc2ccc(cc2)OCCCCSC[C@@H](C=O)NC1=O` [Compound 36]: 295 nM.
Turning to “(E/Z)-(9R,12S,15S)-15-tert-Butoxycarbonylamino-12-isopropyl-11,14-dioxo-2-oxa-7-thia-10,13-diaza-bicyclo[15.2.2]henicosa-1(20),4,17(21),18-tetraene-9-carboxylic acid methyl ester”, the ring closure, isolated yield in data set [1] (19-membered ring, Grubbs II, 17.3 mM) came out at 72%.
The molecule “(E/Z)-(7S,10S,13S)-13-(4-Fluoro-benzenesulfonylamino)-10-isobutyl-9,12-dioxo-2-oxa-8,11-diaza-bicyclo[13.2.2]nonadeca-1(18),4,15(19),16-tetraene-7-carboxylic acid methyl ester” returned a ring closure, isolated yield in data set [1] (17-membered ring, Grubbs II/Cy2BCl, 10.3 mM) of 63%.
For the molecule `CC(C)C[C@@H]1NC(=O)[C@@H](NS(=O)(=O)c2ccc(F)cc2)Cc2ccc(cc2)OCCCC[C@@H](CO)NC1=O` [Compound 16, 4-Fluoro-N-((7S,10S,13S)-7-hydroxymethyl-10-isobutyl-9,12-dioxo-2-oxa-8,11-diaza-bicyclo-[13.2.2]nonadeca-1(18),15(19),16-trien-13-yl)-benzenesulfonamide], the IC50 at calpain II (m calpain) came out at 930 nM.
Turning to `CC(C)[C@@H]1NC(=O)[C@@H](NC(=O)OCc2ccccc2)Cc2ccc(cc2)OCCCC[C@@H](C=O)NC1=O` [Compound 50], on calpain II (m calpain), the concentration for half-maximal inhibition (IC50) came out at 40 nM.
For `CC(C)[C@@H]1NC(=O)[C@@H](NS(=O)(=O)c2ccc(F)cc2)Cc2ccc(cc2)OCCCCSC[C@@H](C=O)NC1=O` [Compound 58, 4-Fluoro-N-((9R,12S,15S)-9-formyl-12-isopropyl-11,14-dioxo-2-oxa-7-thia-10,13-diaza-bicyclo[15.2.2]henicosa-1(20),17(21),18-trien-15-yl)-benzenesulfonamide], on calpain II (m calpain), the half-maximal inhibitory concentration (IC50) stood at 2400 nM.
Still for that read-out and setting: the same measure for `CC(C)[C@@H]1NC(=O)[C@@H](NC(=O)c2ccc[nH]2)Cc2ccc(cc2)OCCCC[C@@H](C=O)NC1=O` [Compound 52, 1H-Pyrrole-2-carboxylic acid ((7S,10S,13S)-7-formyl-10-isopropyl-9,12-dioxo-2-oxa-8,11-diaza-bicyclo[13.2.2]nonadeca-1(18),15(19),16-trien-13-yl)-amide]: 690 nM.
In data set [1] (17-membered ring, Grubbs II, 10.0 mM), `COC(=O)[C@@H]1C/C=C/COc2ccc(cc2)C[C@H](NC(=O)OC(C)(C)C)C(=O)N[C@@H](C(C)C)C(=O)N1` had a ring closure, isolated yield of 12%.
As for “(E/Z)-15S-tert-Butoxycarbonylamino-12S-isobutyl-11,14-dioxo-2,7-dioxa-10,13-diaza-bicyclo[15.2.2]heneicosa-1(20),4,17(21),18-tetraene-9R-carboxylic acid methyl ester”, the ring closure, isolated yield in data set [1] (setting [2]) came to 33%.
Take `CC(C)[C@@H]1NC(=O)[C@@H](NS(=O)(=O)c2ccc(F)cc2)Cc2ccc(cc2)OCCC[C@@H](C=O)NC1=O` [Compound 69, 4-Fluoro-N-((6S,9S,12S)-6-formyl-9-isopropyl-8,11-dioxo-2-oxa-7,10-diaza-bicyclo[12.2.2]octadeca-1(17),14(18),15-trien-12-yl)-benzenesulfonamide]: at calpain II (m calpain), the IC50 worked out at 3710 nM.
Take “(E/Z)-15S-tert-Butoxycarbonylamino-12S-isobutyl-11,14-dioxo-2-oxa-2-thia-10,13-diaza-bicyclo[15.2.2]heneicosa-1(20),4,17(21),18-tetraene-9R-carboxylic acid methyl ester”: the ring closure, isolated yield in data set [1] (setting [2]) was determined as 40%.
As to “(E/Z)-(9S,12S,15S)-15-tert-Butoxycarbonylamino-12-isopropyl-11,14-dioxo-2,7-dioxa-10,13-diaza-bicyclo[15.2.2]henicosa-1(20),4,17(21),18-tetraene-9-carboxylic acid methyl ester”, the ring closure, isolated yield in data set [1] (19-membered ring, Grubbs II, 12.6 mM) turned out to be 23%.
With `CC(C)C[C@@H]1NC(=O)[C@@H](NC(=O)OCc2ccccc2)Cc2ccc(cc2)OCCCC[C@@H](CNC2CC2)NC1=O` [Compound 81, ((7S,10S,13S)-7-Cyclopropylaminomethyl-10-isobutyl-9,12-dioxo-2-oxa-8,11-diaza-bicyclo[13.2.2]nonadeca-1(18),15(19),16-trien-13-yl)-carbamic acid benzyl ester], at calpain II (m calpain), the half-inhibitory concentration (IC50) was > 50000 nM.
On the same count and under the same terms, then `CC(C)[C@@H]1NC(=O)[C@@H](NS(C)(=O)=O)Cc2ccc(cc2)OCCCC[C@@H](C=O)NC1=O` [Compound 56, N-((7S,10S,13S)-7-Formyl-10-isopropyl-9,12-dioxo-2-oxa-8,11-diaza-bicyclo[13.2.2]nonadeca-1(18),15(19),16-trien-13-yl)-methanesulfonamide], with 950 nM.
